Measurements taken from patent publication US20250114430A1, “MODIFIED PEPTIDOMIMETICS AND METHODS OF USE” (The University of North Carolina at Chapel Hill, priority 2021, published 2025).
“Also recorded” adds a separate entry of the source. No end group written: not given here.

Assays:
HEK293T cells = assay: Cytoplasmic Ca^2+ (Fluo-4) in HEK293T cells incubated with ELD peptides; assay type: cell-based; details: 2 hours with Fluo-4 plus or minus peptide
P. aeruginosa = assay: Murine model of P. aeruginosa bacterial pneumonia; assay type: in vivo, mice
Procedure: FIGS. 15A-15D show (FIG. 15A) a schematic of a murine model of P. aeruginosa (top left panel), and bar graphs of (FIG. 15B) BAL monocytes, (FIG. 15C) BAL neutrophils, and (FIG. 15D) bacterial counts in whole lung at 24 hours quantified following experiments according to the mouse model as schematized and conditions as noted on the x-axis.
FIGS. 16A-16G show data from further P. aeruginosa infection experiments. […] Increased inflammation is seen in infection as indicated in the alveolar/gas exchange regions of the lungs which show alveolar damage and thickening that prevent gas exchange. ELD607 treatment normalized alveoli histology similar to naïve lung conditions.
Mice were exposed to vehicle or P. aeruginosa±ELD607 and BAL was obtained and stained with an anti-Orai1 antibody, fluorescent 2° and DAPI. […] FIG. 16G panels B and C show plots showing fluorescence intensities of Orai1 in macrophages and neutrophils, respectively. ***p<0.001 different as indicated. ND=no detectable neutrophils in these groups.
Further in vivo experiments were performed. […] Bronchoalveolar lavage (BAL) and organ collection was performed 24 hours following treatment with peptide (FIG. 15A). […] Moreover, 24 h after infection, about 10^9 CFUs could be detected in murine whole lung homogenate. However, ELD607 caused an ˜5 log10 reduction in lung bacteria (FIG. 15D).
Mice were exposed to vehicle or P. aeruginosa±ELD607 and BAL was obtained and stained with an anti-Orai1 antibody, fluorescent 2° and DAPI. […] FIG. 16G panels B and C show plots showing fluorescent intensities of Orai1 in macrophages and neutrophils, respectively.
To examine Orai1 levels, BAL was then obtained from P. aeruginosa-infected mice, immediately cytospun, fixed in PFA and stained with an antibody against Orai1.

Orai1 [1] = target: T1, Orai1 (Homo sapiens, UniProt Q96D31); assay: TIRF microscopy of Orai1 in the plasma membrane; assay type: cell-based; set-up: Endogenous Orai1/store operated Ca^2+ influx have been extensively studied in HEK293T cells; endogenous in cells; host or cells: HEK293T; details: Orai1-YFP, 3 h
T1 sequence (Q96D31 whole entry): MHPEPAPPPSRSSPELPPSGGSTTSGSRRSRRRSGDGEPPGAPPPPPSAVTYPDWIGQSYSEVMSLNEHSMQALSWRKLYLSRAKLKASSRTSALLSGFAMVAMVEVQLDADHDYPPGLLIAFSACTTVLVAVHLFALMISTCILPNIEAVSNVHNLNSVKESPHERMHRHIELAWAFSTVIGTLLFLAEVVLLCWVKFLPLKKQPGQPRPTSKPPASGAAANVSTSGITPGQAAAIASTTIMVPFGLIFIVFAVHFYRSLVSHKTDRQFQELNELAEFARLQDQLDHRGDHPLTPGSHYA
Text: To determine whether ELD607 internalized Orai1, total internal reflection fluorescence (TIRF) microscopy was used to measure Orai1 in the plasma membrane. […] However, ELD607 reduced Orai1 plasma membrane expression by ˜50% (FIG. 26, panels A-B). […] We expressed NFAT-GFP in HEK293T cells and evaluated the ability of ELD607 to attenuate NFAT relocation to the nucleus after stimulation of SOCE by confocal microscopy. ELD607 reduced the percentage of NFAT in the nucleus by greater than 50% (FIG. 26, panels C-D).

Orai1 [2] = target: T1, Orai1; assay: Orai1 immunocytochemistry on immune cells of ARDS/bacterial pneumonia patients; assay type: cell-based; set-up: immune cells of ARDS/bacterial pneumonia patients; endogenous in cells; host or cells: immune cells from tracheal aspirates of ARDS/bacterial pneumonia patients; details: paired patient samples
Text: We then performed Orai1 immunocytochemistry on paired samples of immune cells of ARDS/bacterial pneumonia patients. Cells derived from each patient were exposed to either vehicle, ELD607, or scrambled ELD607 (FIG. 27, panels D and E).

[3] = 10^7 CFU, 0.51 mg/kg intranasal

VHDIVNMLIRG [ELD607, VHDIVNMLIRG]
cytoplasmic calcium levels as compared to a control scrambled peptide (HEK293T cells): reduced cytoplasmic calcium levels | BAL monocytes (P. aeruginosa; 10^7 CFU intratracheally, 0.51 mg/kg peptide intranasal 1 hour later, 24 hours): significantly retained monocyte levels | BAL lactate dehydrogenase (LDH) (P. aeruginosa; [3]): significantly reduced | BAL neutrophil elastase (P. aeruginosa; [3]): significantly reduced | BAL total protein (P. aeruginosa; [3]): significantly reduced | BAL neutrophils (P. aeruginosa; 10^7 CFU, 0.51 mg/kg intranasal, 24 hours): reduced neutrophil levels | survival (P. aeruginosa; 10^9 CFU/ml P. aeruginosa, 48 hours post-infection): significantly improved survival | bacterial counts in the spleen (P. aeruginosa; 24 hours post ELD607 treatment): reduced bacterial counts in the spleen | BAL neutrophils, delayed treatment (P. aeruginosa; ELD607 added 24 hours after infection): reduced | BAL Macrophage Inflammatory Protein 2 (MIP-2) (P. aeruginosa; P. aeruginosa infected mice): reduced | BAL interleukin-17 (IL-17) (P. aeruginosa; P. aeruginosa infected mice): reduced | BAL keratinocytes-derived chemokine (KC) (P. aeruginosa; P. aeruginosa infected mice): reduced | IL-6 (P. aeruginosa; P. aeruginosa infected mice): reduced | interleukin-1β (IL-1β) (P. aeruginosa; P. aeruginosa infected mice): reduced | lung histology (P. aeruginosa; P. aeruginosa infected mice): normalization of alveoli | tumor necrosis factor-α (TNF-α) (P. aeruginosa; P. aeruginosa infected mice): reduced | weight loss (P. aeruginosa; intranasal 10^7 CFU/ml P. aeruginosa, 24 hours): prevented the total weight loss | Orai1 levels in BAL cells (anti-Orai1 staining) (P. aeruginosa; naïve and P. aeruginosa-infected mice): reduces Orai1 in murine BAL macrophages; also recorded: significant decrease in Orai1 levels | reduction in lung bacteria (P. aeruginosa; whole lung homogenate, 24 h after infection): ~5 log10 | reduction of Orai1 plasma membrane expression (Orai1 [1]): ~50% | Orai1 levels (Orai1 [2]): significant reduction in Orai1 levels
